This note sets out measurements from ChEMBL document CHEMBL5154745, “Synthesis and antiviral activities of quinazolinamine-coumarin conjugates toward chikungunya and hepatitis C viruses” (Eur J Med Chem, 2022).

Data set [1] can be described thus: Selectivity index, ratio of CC50 for cytotoxicity against human cells over EC50 for antiviral activity against CHIKV 899 infected in African green monkey Vero cells. Type of data set: toxicity, cell-based. Conditions: read-out: Ratio CC50/EC50.
A short description of data set [2]: Cytotoxicity against human HEL cells measured after 3 days by coulter counting method. Format: toxicity, cell-based. Conditions: time 3 day.
Data set [3] has as its system Chikungunya virus. In words: Antiviral activity against CHIKV 899 infected in African green monkey Vero cells measured after 7 days. The settings on record: Chikungunya virus, 899, Vero, 168 h. Format: functional, organism-based.
A short description of data set [4]: Lipophilicity, log P of the compound. Type of data set: physicochemical. Conditions: octanol/water.
In a further data set the test system is Hepatitis C virus. The experiment in a line: Antiviral activity against HCV infected in human Huh-5-2 cells assessed as reduction in viral replication measured by Luciferase reporter gene assay. Type of data set: functional, organism-based, Hepacivirus hominis. (In general: Reporter assays use an easily measured gene product as a stand-in for the process of interest.)

Data set [5] deals with Chikungunya virus. The experiment in a line: Antiviral activity against CHIKV assessed as inhibition of viral replication. Type of data set: functional, organism-based.

The CC50 is the concentration at which the toxic effect on the cells reaches its halfway point. As a reminder, the EC50 is the midpoint of the concentration-response curve. Regarding `COc1ccc(CNc2nc(S)nc3ccccc23)cc1`, the selectivity ratio in data set [1] is over 1. The same compound displayed a CC50 at 72 h in data set [2] of over 336 µM. Also, it took 329 µM to reach a half-maximal effect with Chikungunya virus [3] (EC50).
As to `Sc1nc(Nc2ccncc2)c2ccccc2n1`, the selectivity ratio in data set [1] stood at 1.1. Moreover, it took 242 µM to reach half-maximal cytotoxicity in data set [2] (CC50 at 72 h). Besides, in the data set on Chikungunya virus [3], the EC50 was 220 µM.
The term logP denotes a log measure of how a compound divides between an organic and an aqueous phase. For the compound `CC(C)(C)c1ccc2oc(=O)cc(CSc3nc(Nc4ccncc4)c4ccccc4n3)c2c1`, the selectivity ratio in data set [1] amounted to 8.8. Also, the CC50 at 72 h in data set [2] was found to be 17.3 µM. Moreover, the 50% effective concentration (EC50) in the data set on Chikungunya virus [3] was determined as 1.96 µM. For the same compound, the logP in data set [4] is 3.93.
Turning to `Cc1cccc(Nc2nc(SCc3cc(=O)oc4ccc(C(C)(C)C)cc34)nc3ccccc23)c1C`, the selectivity ratio in data set [1] is 10.8. In data set [2], the CC50 at 72 h stood at 150 µM. For the same compound, the results for the EC50 in the data set with Hepatitis C virus and in the data set with Chikungunya virus [3] were 16.6 µM and 13.9 µM, respectively. Moreover, the logP in data set [4] is 5.04.
With `CC(C)(C)c1ccc2oc(=O)cc(CSc3nc(Nc4cccc5ccccc45)c4ccccc4n3)c2c1`, the EC50 in the data set on Chikungunya virus [3] was over 193 µM.
As to `COc1ccccc1Nc1nc(SCc2cc(=O)oc3ccc(C(C)(C)C)cc23)nc2ccccc12`, the selectivity ratio in data set [1] was 16.8. This compound registered a CC50 at 72 h in data set [2] of 51.9 µM. For the same compound, the midpoint of the response in the data set with Chikungunya virus [3], the EC50, lay at 3.08 µM. The same compound displayed a logP in data set [4] of 4.76.
With `Cc1ccc(Nc2nc(S)nc3ccccc23)c(C)c1`, the selectivity ratio in data set [1] stood at 2.4. For the same compound, the CC50 at 72 h in data set [2] came to 142 µM. Moreover, in the data set with Chikungunya virus [3], the EC50 was 59.4 µM.
Regarding `Sc1nc(Nc2cccc3ccccc23)c2ccccc2n1`, the selectivity ratio in data set [1] is 7.4. In data set [2], this compound gave a CC50 at 72 h of 118 µM. A half-maximal effect in the data set on Chikungunya virus [3] (EC50) was put at 16.1 µM.
In the data set on Chikungunya virus [3], `Cc1cc(C)nc(Nc2nc(S)nc3ccccc23)c1` yielded an EC50 of over 33.2 µM.
Take `Cc1cccc(Nc2nc(S)nc3ccccc23)c1C`: the selectivity ratio in data set [1] came to 3.4. This compound also came in with a CC50 at 72 h in data set [2] of 131 µM. Also, the EC50 in the data set with Chikungunya virus [3] was 39.1 µM.
On to `CC(C)(C)c1ccc2oc(=O)cc(CSc3nc(Nc4ccccc4)c4ccccc4n3)c2c1`, for which the selectivity ratio in data set [1] came out at 37.2. In data set [2], this compound returned a CC50 at 72 h of 147 µM. Besides, the EC50 with Chikungunya virus [3] worked out at 3.95 µM. Further, the logP in data set [4] turned out to be 4.88.
`Cc1ccc(Nc2nc(SCc3cc(=O)oc4ccc(C(C)(C)C)cc34)nc3ccccc23)c(C)c1` showed a CC50 at 72 h in data set [2] of 84.6 µM. For the same compound, the EC50 is 27.9 µM with Hepatitis C virus and 3.11 µM in the data set on Chikungunya virus [3]. In data set [4], this compound displayed a logP of 5.03.
For `COc1cc2oc(=O)cc(CSc3nc(Nc4ccccc4)c4ccccc4n3)c2cc1OC`, the EC50 with Chikungunya virus [3] is over 212 µM.
Regarding `COc1ccccc1Nc1nc(S)nc2ccccc12`, in data set [1], the selectivity ratio is 1.3. Half-maximal cytotoxicity in data set [2] (CC50 at 72 h) was put at 290 µM. The compound further showed an EC50 with Chikungunya virus [3] of 224 µM.
As to `Cc1ccc2oc(=O)cc(CSc3nc(Nc4ccccc4)c4ccccc4n3)c2c1`, the EC50 in the data set on Chikungunya virus [3] is over 47 µM.
On to `CC(C)(C)c1ccc2oc(=O)cc(CSc3nc(N(Cc4ccccc4)c4ccccc4)c4ccccc4n3)c2c1`, for which, in the data set on Chikungunya virus [3], the EC50 is over 180 µM.
Turning to `O=c1cc(CSc2nc(Nc3ccccc3)c3ccccc3n2)c2ccc(O)cc2o1`, the EC50 in the data set with Chikungunya virus [3] was over 234 µM.
On to `Cc1cc(C)nc(Nc2nc(SCc3cc(=O)oc4ccc(C(C)(C)C)cc34)nc3ccccc23)c1`, for which, in the data set with Chikungunya virus [3], the EC50 is over 151 µM.
For the compound `COc1ccc(CNc2nc(SCc3cc(=O)oc4ccc(C(C)(C)C)cc34)nc3ccccc23)cc1`, in data set [1], the selectivity ratio is over 1.7. In addition, the CC50 at 72 h in data set [2] was over 147 µM. A half-maximal effect in the data set on Chikungunya virus [3] (EC50) was put at 85.3 µM.
Take `Sc1nc(Nc2ccccc2)c2ccccc2n1`: in data set [1], the selectivity ratio is 2.5. In data set [2], this compound had a CC50 at 72 h of 275 µM. Also, the EC50 in the data set on Chikungunya virus [3] was determined as 108 µM.
`O=c1ccc2ccccc2o1` [COUMARIN] yielded a CC50 at 72 h in data set [2] of over 500 µM. Besides, in the data set with Hepatitis C virus, the EC50 was over 150 µM.
`Cc1ccc(C(=O)Nc2ccc(S(=O)(=O)O)c3cc(S(=O)(=O)O)cc(S(=O)(=O)O)c23)cc1NC(=O)c1cccc(NC(=O)Nc2cccc(C(=O)Nc3cc(C(=O)Nc4ccc(S(=O)(=O)O)c5cc(S(=O)(=O)O)cc(S(=O)(=O)O)c45)ccc3C)c2)c1` [SURAMIN]: the EC50 in the data set on Chikungunya virus [5] is 80 µM.
